In patent US8889688B2, “Piperazines as antimalarial agents” (Actelion Pharmaceuticals Ltd., priority 2011, dated 2014) one finds IC50 and inhibition in vivo data, which are given here for 17 molecules.

Broadly, the IC50 is the midpoint of a concentration-inhibition curve.

Like-named read-outs stand apart in the source and are kept apart here.

Test [1] deals with erythrocytic stages of P. falciparum NF54. In words: Plasmodium falciparum in vitro assay, [3H] hypoxanthine incorporation. The following applies: Plasmodium falciparum, Erythrocyte, 72 h, P. falciparum NF54 in human red blood cells, 48 h + 24 h incubation. The test is classed as cell-based. A digest of the protocol:
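Cultures in human red blood cells (2.5% hematocrit, 0.3% parasitemia) were exposed to serially diluted compounds for 48 h at 37° C. under 4% CO2, 3% O2, 93% N2. [3H] hypoxanthine (0.5 μCi) was added for a further 24 h, incorporation counted by scintillation, and IC50 derived from sigmoidal inhibition curves.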

For test [2], the system named is P. berghei strain GFP-ANKA. In words: In vivo antimalarial efficacy study in infected NMRI mice. The following applies: Plasmodium berghei; female NMRI mice infected with P. berghei GFP-ANKA; single oral dose of 100 mg/kg 24 h after infection; parasitemia 48 h after drug treatment (day 3); read-out: Activity (inhibition of parasitemia) expressed as a percent relative to the control group. The protocol:
In Vivo Antimalarial Efficacy Studies
In vivo antimalarial activity is assessed for groups of three female NMRI mice (20-22 g) intravenously infected on day 0 with P. berghei strain GFP-ANKA (0.2 mL heparinized saline suspension containing 2×10^7 parasitized erythrocytes). In control mice, parasitemia typically rises to approximately 40% by day 3 after infection. Compounds are formulated in Tween 80/ethanol (7%/3%) usually at concentrations of 10 mg/mL. Compounds are administered in a volume of 10 mL/kg orally as single doses (1×100 mg/kg, 24 h after infection). 48 h after drug treatment (day 3 post-infection), 1 μl tail blood is taken, resuspended in 1 mL PBS buffer and parasitemia determined with a FACScan (Becton Dickinson) by counting 100′000 red blood cells. Activity is calculated as the difference between the mean value of the control group and treated groups expressed as a percent relative to the control group.

Setting [3] is: screening medium with Albumax (5 g/L), read-out: IC50 on NF54 (with Albumax).
[4] abbreviates: screening medium with human serum (50% final concentration), read-out: IC50 on NF54 (with 50% Serum).

In the case of `CC(=O)N1CCN(c2ccc(CN(C(=O)C=Cc3ccc(C(C)(C)C)cc3)[C@@H](Cc3ccccc3)C(=O)N3CCN(Cc4ccc(C#N)cc4)CC3)cc2)CC1` [Example 34, (S)-N-[4-(4-Acetyl-piperazin-1-yl)-benzyl]-N-{1-benzyl-2-[4-(4-cyano-benzyl)-piperazin-1-yl]-2-oxo-ethyl}-3-(4-tert-butyl-phenyl)-acrylamide], the IC50 in test [1] (setting [3]) turned out to be 0.5 nM; in test [1] (setting [4]) it was 3.8 nM. In addition, the inhibition in vivo at 100 mg/kg in test [2] came to 99.2%.
In the same order, the values of `CCOc1ccc(C=CC(=O)N(Cc2ccc(N3CCN(C(C)=O)CC3)cc2)[C@@H](Cc2ccccc2)C(=O)N2CCN(Cc3ccc(Cl)cc3)CC2)cc1` [Example 35, (S)-N-[4-(4-Acetyl-piperazin-1-yl)-benzyl]-N-{1-benzyl-2-[4-(4-chloro-benzyl)-piperazin-1-yl]-2-oxo-ethyl}-3-(4-ethoxy-phenyl)-acrylamide] are 2.9 nM, 9 nM and 98.7%.
The matching figures for `CC(=O)N1CCN(c2ccc(CN(C(=O)C=Cc3ccc(S(C)(=O)=O)cc3)[C@@H](Cc3ccccc3)C(=O)N3CCN(Cc4ccc(Cl)cc4)CC3)cc2)CC1` [Example 36, (S)-N-[4-(4-Acetyl-piperazin-1-yl)-benzyl]-N-{1-benzyl-2-[4-(4-chloro-benzyl)-piperazin-1-yl]-2-oxo-ethyl}-3-(4-methanesulfonyl-phenyl)-acrylamide]: 7.8 nM, 28 nM and 46.8%.
With `CCCOc1ccc(C=CC(=O)N(Cc2ccc(N3CCN(C(C)=O)CC3)cc2)[C@@H](Cc2ccccc2)C(=O)N2CCN(Cc3ccc(Cl)cc3)CC2)cc1` [Example 38, (S)-N-[4-(4-Acetyl-piperazin-1-yl)-benzyl]-N-{1-benzyl-2-[4-(4-chloro-benzyl)-piperazin-1-yl]-2-oxo-ethyl}-3-(4-propoxy-phenyl)-acrylamide], the results for the IC50 in test [1] (setting [3]) and in test [1] (setting [4]) were 1.8 nM and 9 nM, respectively. Further, the inhibition in vivo at 100 mg/kg in test [2] came to 98.5%.
In the same order, the values of `CC(=O)N1CCN(c2ccc(CN(C(=O)C=Cc3ccc(OC(C)C)cc3)[C@@H](Cc3ccccc3)C(=O)N3CCN(Cc4ccc(Cl)cc4)CC3)cc2)CC1` [Example 39, (S)-N-[4-(4-Acetyl-piperazin-1-yl)-benzyl]-N-{1-benzyl-2-[4-(4-chloro-benzyl)-piperazin-1-yl]-2-oxo-ethyl}-3-(4-isopropoxy-phenyl)-acrylamide] are 2.3 nM, 11 nM and 99%.
For `CCc1ccc(C=CC(=O)N(Cc2ccc(N3CCN(C(C)=O)CC3)cc2)[C@@H](Cc2ccccc2)C(=O)N2CCN(Cc3ccc(Cl)cc3)CC2)cc1` [Example 40, (S)-N-[4-(4-Acetyl-piperazin-1-yl)-benzyl]-N-{1-benzyl-2-[4-(4-chloro-benzyl)-piperazin-1-yl]-2-oxo-ethyl}-3-(4-ethyl-phenyl)-acrylamide], the results for the IC50 in test [1] (setting [3]) and in test [1] (setting [4]) were 1.7 nM and 10.5 nM, respectively. Also, the inhibition in vivo at 100 mg/kg in test [2] was 93.6%.
In the same order, the values of `CC(=O)N1CCN(c2ccc(CN(C(=O)C=Cc3ccc(OC(F)F)cc3)[C@@H](Cc3ccccc3)C(=O)N3CCN(Cc4ccc(Cl)cc4)CC3)cc2)CC1` [Example 41, (S)-N-[4-(4-Acetyl-piperazin-1-yl)-benzyl]-N-{1-benzyl-2-[4-(4-chloro-benzyl)-piperazin-1-yl]-2-oxo-ethyl}-3-(4-difluoromethoxy-phenyl)-acrylamide] are 2.9 nM, 12.5 nM and 71%.
In the same order, the values of `CC(=O)N1CCN(c2ccc(CN(C(=O)C=Cc3ccc(C(C)C)cc3)[C@@H](Cc3ccccc3)C(=O)N3CCN(Cc4ccc(Cl)cc4)CC3)cc2)CC1` [Example 42, (S)-N-[4-(4-Acetyl-piperazin-1-yl)-benzyl]-N-{1-benzyl-2-[4-(4-chloro-benzyl)-piperazin-1-yl]-2-oxo-ethyl}-3-(4-isopropyl-phenyl)-acrylamide] are 1.7 nM, 13.7 nM and 97.3%.
On to `CC(=O)N1CCN(c2ccc(CN(C(=O)C=Cc3ccc(C(C)(C)C)cc3)[C@@H](Cc3ccccc3)C(=O)N3CCN(Cc4ccc(Cl)cc4)CC3)cc2)CC1` [Example 43, (S)-N-[4-(4-Acetyl-piperazin-1-yl)-benzyl]-N-{1-benzyl-2-[4-(4-chloro-benzyl)-piperazin-1-yl]-2-oxo-ethyl}-3-(4-tert-butyl-phenyl)-acrylamide], for which the IC50 in test [1] (setting [3]) is 1.1 nM; in test [1] (setting [4]) it was 13.5 nM. The inhibition in vivo at 100 mg/kg in test [2] amounted to 98.7%.
In the case of `CC(=O)N1CCN(c2ccc(CN(C(=O)C=Cc3ccc(OC(C)C)cc3)[C@@H](Cc3ccccc3)C(=O)N3CCN(Cc4ccc(S(C)(=O)=O)cc4)CC3)cc2)CC1` [Example 44, (S)-N-[4-(4-Acetyl-piperazin-1-yl)-benzyl]-N-{1-benzyl-2-[4-(4-(methylsulfonyl)-benzyl)-piperazin-1-yl]-2-oxo-ethyl}-3-(4-isopropoxyphenyl)-acrylamide], the IC50 in test [1] (setting [3]) is 0.4 nM; in test [1] (setting [4]), 2.8 nM. The inhibition in vivo at 100 mg/kg in test [2] is 99%.
In the case of `CC(=O)N1CCN(c2ccc(CN(C(=O)C=Cc3ccc(C(C)(C)C)cc3)[C@@H](Cc3ccccc3)C(=O)N3CCN(Cc4ccc(S(C)(=O)=O)cc4)CC3)cc2)CC1` [Example 45, (S)-N-[4-(4-Acetyl-piperazin-1-yl)-benzyl]-N-{1-benzyl-2-[4-(4-(methylsulfonyl)-benzyl)-piperazin-1-yl]-2-oxo-ethyl}-3-(4-tert-butyl-phenyl)-acrylamide], the IC50 was 0.2 nM in test [1] (setting [3]) and 1.8 nM in test [1] (setting [4]). The inhibition in vivo at 100 mg/kg in test [2] was 99.4%.
In the same order, the values of `CCCOc1ccc(C=CC(=O)N(Cc2ccc(N3CCN(C(C)=O)CC3)cc2)[C@@H](Cc2ccccc2)C(=O)N2CCN(Cc3ccc(S(C)(=O)=O)cc3)CC2)cc1` [Example 46, (S)-N-[4-(4-Acetyl-piperazin-1-yl)-benzyl]-N-{1-benzyl-2-[4-(4-(methylsulfonyl)-benzyl)-piperazin-1-yl]-2-oxo-ethyl}-3-(4-propoxyphenyl)-acrylamide] are 0.4 nM, 1.1 nM and 98.9%.
The matching figures for `CC(=O)N1CCN(c2ccc(CN(C(=O)C=Cc3ccc(C(F)(F)F)cc3)[C@@H](Cc3ccccc3)C(=O)N3CCN(Cc4ccc(S(C)(=O)=O)cc4)CC3)cc2)CC1` [Example 47, (S)-N-(4-(4-acetylpiperazin-1-yl)benzyl)-N-(1-(4-(4-(methylsulfonyl)benzyl)piperazin-1-yl)-1-oxo-3-phenylpropan-2-yl)-3-(4-(trifluoromethyl)phenyl)acrylamide]: 0.5 nM, 3.5 nM and 98.4%.
The matching figures for `CCCOc1ccc(C=CC(=O)N(Cc2ccc(N3CCN(C(C)=O)CC3)cc2)[C@@H](Cc2ccccc2)C(=O)N2CCN(Cc3ccc(S(=O)(=O)CC)cc3)CC2)cc1` [Example 48, (S)-N-[4-(4-Acetyl-piperazin-1-yl)-benzyl]-N-{1-benzyl-2-[4-(4-(ethylsulfonyl)-benzyl)-piperazin-1-yl]-2-oxo-ethyl}-3-(4-propoxyphenyl)-acrylamide]: 0.5 nM, 1.6 nM and 99%.
For `CCS(=O)(=O)c1ccc(CN2CCN(C(=O)[C@H](Cc3ccccc3)N(Cc3ccc(N4CCN(C(C)=O)CC4)cc3)C(=O)C=Cc3ccc(C(F)(F)F)cc3)CC2)cc1` [Example 49, (S)-N-(4-(4-acetylpiperazin-1-yl)benzyl)-N-(1-(4-(4-(ethylsulfonyl)benzyl)piperazin-1-yl)-1-oxo-3-phenylpropan-2-yl)-3-(4-(trifluoromethyl)phenyl)acrylamide], the IC50 amounted to 0.8 nM in test [1] (setting [3]) and 3.1 nM in test [1] (setting [4]). Further, in test [2], the inhibition in vivo at 100 mg/kg is 98.6%.
As for `CC(=O)N1CCN(c2ccc(CN(C(=O)C=Cc3ccc(C(F)(F)F)cc3)[C@@H](Cc3ccccc3)C(=O)N3CCN(Cc4ccc(N(C)CCO)cc4)CC3)cc2)CC1` [Example 50, (S)-N-[4-(4-Acetyl-piperazin-1-yl)-benzyl]-N-[1-benzyl-2-(4-{4-[(2-hydroxy-ethyl)-methyl-amino]-benzyl}-piperazin-1-yl)-2-oxo-ethyl]-3-(4-trifluoromethyl-phenyl)-acrylamide], the IC50 in test [1] (setting [3]) came to 1.6 nM; in test [1] (setting [4]), 9.3 nM. Moreover, the inhibition in vivo at 100 mg/kg in test [2] amounted to 98%.
In the same order, the values of `COc1ccc(C=CC(=O)N(Cc2ccc(N3CCN(C(C)=O)CC3)cc2)[C@@H](Cc2ccccc2)C(=O)N2CCN(Cc3ccc(N(C)CCO)cc3)CC2)cn1` [Example 52, (S)-N-[4-(4-Acetyl-piperazin-1-yl)-benzyl]-N-[1-benzyl-2-(4-{4-[(2-hydroxy-ethyl)-methyl-amino]-benzyl}-piperazin-1-yl)-2-oxo-ethyl]-3-(6-methoxy-pyridin-3-yl)-acrylamide] are 10 nM, 33 nM and less than 40%.
